Measured values as given in patent US12318373B2, “Methods of treating gastrointestinal stromal tumors” (Deciphera Pharmaceuticals, LLC, priority 2019, dated 2025).

Tests used:
advanced GIST = test: Example 2: randomized, double-blind, placebo-controlled study, efficacy (PFS, ORR, OS); format: in vivo, human; conditions: for PFS by BICR: events, % / PFS by BICR: number of events: N = 85
Description: Example 2. A Randomized, Double-blind, Placebo-controlled, International, Multicenter Study to Evaluate the Safety, Tolerability, and Efficacy of Ripretinib Compared to Placebo in Patients with Advanced GIST Whose Previous Therapies Have Included Imatinib, Sunitinib, and Regorafenib
This study was a randomized (2:1), double-blind, placebo-controlled, international, multicenter study to evaluate the safety, tolerability, and efficacy of ripretinib compared to placebo in 129 patients with advanced GIST whose previous therapies have included at least imatinib, sunitinib, and regorafenib. Patients were randomized 2:1 to either 150 mg of ripretinib or placebo once daily. The primary efficacy endpoint is progression-free survival (PFS) as determined by independent radiologic review using modified Response Evaluation Criteria in Solid Tumors (RECIST). Secondary endpoints as determined by independent radiologic review using modified RECIST include Objective Response Rate (ORR), Time to Tumor Progression (TTP) and Overall Survival (OS).
Patients whose disease progressed during the double blind phase of the study were escalated to 150 mg BID ripretinib, continued at the 150 mg QD dose, or discontinued in an open label-phase of the study.

GIST = test: Example 3: clinical study in second-line through fourth-line plus GIST, efficacy at ≥100 mg daily; format: in vivo, human; conditions: for Objective Response Rate by Best Response Includes Unconfirmed: RECIST 1.1, investigator-assessed
Description: Results. Data from 178 GIST patients receiving ripretinib at doses of ≥100 mg daily are noted in Table 2. The table includes investigator-assessed objective response rate (ORR) by best response, disease control rate (DCR) and median progression free survival (mPFS), all of which were determined by Response Evaluation Criteria in Solid Tumors (RECIST) version 1.1.

Solubility = format: physicochemical
[1] = Example 7: coadministration with strong CYP3A inhibitor (itraconazole), exposure; format: in vivo; conditions: coadministration of ripretinib with itraconazole
[2] = 150 mg once daily, BICR, modified RECIST 1.1

## CCn1c(=O)c(-c2cc(NC(=O)Nc3ccccc3)c(F)cc2Br)cc2cnc(NC)cc21 [ripretinib]
Advanced GIST; 150 mg QD, FIGS. 17A, 17B
  Benefit over placebo (PFS, OS), primary Exon 11 and Exon 9 mutation: derive a benefit
Advanced GIST; 150 mg once daily
  OS hazard ratio (HR) vs placebo: 0.36
  OS rate at 12 months: 65.4%
  PFS hazard ratio (HR) compared to placebo: 0.15
  PFS rate at 6 months: 51%
  Patients with PD, %: 18.8%
  Patients with PD, number: 16
  Patients with stable disease (SD) for 12 weeks, number: 40
  Reduction of risk of disease progression or death compared to placebo: 85%
Advanced GIST; [2]
  Median PFS: 6.3 months
  Objective response rate (ORR): 9.4%
Advanced GIST; 150 mg once daily, initial ripretinib arm
  Median PFS: 27.6 weeks
Advanced GIST; 150 mg once daily, patients initially randomized to ripretinib
  Median OS: 15.1 months
Advanced GIST; FIG. 26A-D
  PFS compared to placebo in subgroups with Exon 9, 11, 13 or 17 KIT mutations: PFS benefit in all assessed patient subgroups
Advanced GIST; double-blind cut
  PFS by BICR: events, %: (60) %
  PFS by BICR: number of events: 51
  Median OS: 15 months
  Median PFS by BICR: 6.3 months
  OS hazard ratio: 0.36
  Overall Response Rate by BICR: 9%
  Overall Survival: deaths, %: (31) %
  Overall Survival: number of deaths: 26
  PFS by BICR: deaths, %: (6) %
  PFS by BICR: deaths, number: 5
  PFS by BICR: progressive disease, %: (54) %
  PFS by BICR: progressive disease, number: 46
  PFS hazard ratio: 0.15
Advanced GIST; open-label cut
  PFS by BICR: events, %: (75) %
  PFS by BICR: number of events: 64
  Median OS: Not Reached
  Median PFS by BICR: 6.3 months
  OS hazard ratio: 0.43
  Overall Response Rate by BICR: 12%
  Overall Survival: deaths, %: (45) %
  Overall Survival: number of deaths: 38
  PFS by BICR: deaths, %: (7) %
  PFS by BICR: deaths, number: 6
  PFS by BICR: progressive disease, %: (68) %
  PFS by BICR: progressive disease, number: 58
  PFS hazard ratio: 0.16
Advanced GIST; patients crossed over from placebo to ripretinib
  Median PFS: 20.0 weeks
Advanced GIST; patients who crossed over from placebo to ripretinib
  Median OS: 11.6 months
GIST; Fourth-Line (n = 60)
  Disease Control Rate at 3 Months: 73%
  Median Progression Free Survival (mPFS): 30 weeks
  Objective Response Rate by Best Response (Confirmed Only): (8%)
  Objective Response Rate by Best Response Includes Unconfirmed: 15%
GIST; Second-Line (n = 37)
  Disease Control Rate at 3 Months: 81%
  Median Progression Free Survival (mPFS): 42 weeks
  Objective Response Rate by Best Response (Confirmed Only): (22%)
  Objective Response Rate by Best Response Includes Unconfirmed: 30%
GIST; Third-Line (n = 31)
  Disease Control Rate at 3 Months: 80%
  Median Progression Free Survival (mPFS): 40 weeks
  Objective Response Rate by Best Response (Confirmed Only): (13%)
  Objective Response Rate by Best Response Includes Unconfirmed: 23%
GIST; ≥Fourth-Line (n = 110)
  Disease Control Rate at 3 Months: 66%
  Median Progression Free Survival (mPFS): 24 weeks
  Objective Response Rate by Best Response (Confirmed Only): (7%)
  Objective Response Rate by Best Response Includes Unconfirmed: 11%
Solubility
  Solubility: pH-dependent solubility
[1]
  Increase in AUC0-inf: 99%
  Increase in Cmax: 36%
